For one experiment, the system named is retinal ganglion cells. Briefly: Viability of retinal ganglion cells (RGCs) in TTT laser optic nerve injury (glaucoma) model. In kind it is in vivo, C57BL/6 mice. As to conditions: TTT laser model mice, rodent chow containing 50 mg/kg, fed 2 weeks; RGCs labeled day 13, counted 24 h later; FIG. 1. How it is done: (§1) Group 3: Experimental group (n=7) fed with a rodent chow containing 50 mg/kg of a pharmaceutical composition including compound 1 of experimental example 1 as an active ingredient, as a glaucoma model.
(§2) 8-week-old C57BL/6 mice were anesthetized with an intraperitoneal injection of a mixture of ketamine (100 mg/kg) and xylazine (5 mg/kg), and a mydriatic agent was applied to dilate the pupils of the eyes. Thereafter, an application of transpupillary thermotherapy (TTT), 200 spot size, 50-mW power, and 30-sec duration, was performed over the optic disc of an eye. The aiming beam of the laser was focused on the centre of the optic disc, a viscoelastic material was instilled, a cover glass was placed, and laser beams were irradiated while confirming the optic disc through the dilated pupils by naked eyes. The thus-established optic nerve injury model will be hereinafter referred to as a TTT laser model. […]
Twenty-four hours after labeling, the animals were euthanized and the eyes were enucleated and fixed for 2 hours with neutral formalin. […] Under a fluorescence microscope (×400), the fluorescently labeled retinal ganglion cells were counted in 12 regions in the four quadrants of each retina approximately 0.5 mm, 1 mm and 1.5 mm from the edge of the optic disc. […]

For a further experiment, the system named is axons of the optic nerve. Briefly: Axonal viability (Bodian staining) in TTT laser optic nerve injury (glaucoma) model. The class given is in vivo, C57BL/6 mice. The conditions noted are these: TTT laser model mice, rodent chow containing 50 mg/kg; day 14 after laser irradiation; FIG. 2. How it is done: as §1, §2
The retinal cross-section and the optic nerve cross-section were treated with a silver solution for 48 hours, and color development was carried out using a reducing agent, followed by toning and fixation. […] In order to evaluate the axonal viability, the stained axons were counted with a light microscope (×1000), in 20 regions at intervals of 10 in the four quadrants of each retina, from the center of the optic nerve tissue section slide. […]

From patent US20110020448A1, “PHARMACEUTICAL COMPOSITION FOR THE TREATMENT AND PREVENTION OF GLAUCOMA” (MAZENCE, INC., priority 2007, published 2011) come the findings set out here.

As to `CC1(C)CCC2=C(O1)c1ccccc1C(=O)C2=O` [Compound 1, β-lapachone], the “density of retinal ganglion cells relative to the TTT control group (Group 2)” value with retinal ganglion cells is on record as at least 1.7 fold. In addition, in the experiment on axons of the optic nerve, the “axonal density relative to the TTT control group (Group 2)” value is at least 1.5 fold.
